Source: ChEMBL document CHEMBL1806483, “Discovery and SAR of 2-arylbenzotriazoles and 2-arylindazoles as potential treatments for Duchenne muscular dystrophy” (Bioorg Med Chem Lett, 2011)
Converted amounts (≈) assume the structure as drawn.

Key:
[1] = Upregulation of utrophin transcription in mouse H2K cells after 48 hrs by luciferase reporter assay; assay type: functional, cell-based
[2] = Aqueous solubility of the compound in 0.01 M phosphate buffered saline at pH 7.4 after 2 hrs by turbidimetric method; assay type: physicochemical
[3] = Half life in human liver microsome by LC-MS/MS analysis; assay type: ADME; details: liver microsomes
[4] = Upregulation of utrophin transcription in mouse H2K cells at 3 uM after 48 hrs by luciferase reporter assay relative to 2-(4-(diethylamino)phenyl)-6-methyl-2H-benzo[d][1,2,3]triazol-5-amine; assay type: functional, cell-based
[5] = Upregulation of utrophin mRNA expression in mouse H2K cells after 72 hrs by RT-PCR analysis relative to control; assay type: functional, cell-based
[6] = Upregulation of utrophin transcription in mouse H2K cells at 10 uM after 48 hrs by luciferase reporter assay relative to 2-(4-(diethylamino)phenyl)-6-methyl-2H-benzo[d][1,2,3]triazol-5-amine; assay type: functional, cell-based

Row | Structure (SMILES) | EC50 [1] [µM] | also measured
1 | CCN(CC)c1ccc(-n2nc3cc(C)c(NC(=O)C(C)C)cc3n2)cc1 | > 30 | –
2 | CS(=O)(=O)c1ccc2cn(-c3ccc(Cl)cc3)nc2c1 | > 30 | –
3 | CS(=O)(=O)c1ccc2nn(-c3ccc(Cl)cc3)nc2c1 | 11.7 | –
4 | CCS(=O)(=O)c1ccc2nn(-c3ccc(Cl)cc3)nc2c1 | > 30 | –
5 | CCC(=O)Nc1cc2nn(-c3ccc(N(CC)CC)cc3)nc2cc1C | > 30 | –
6 | Cc1cc2nn(-c3ccc(Cl)cc3)nc2cc1NC(=O)C(C)C | > 30 | –
7 | CCS(=O)(=O)c1ccc2nn(-c3ccc4ccccc4c3)nc2c1 | – | Activity [4]: 73%
8 | CS(=O)(=O)c1ccc2nn(-c3ccc4ccccc4c3)nc2c1 | – | Activity [4]: 63%
9 | Nc1ccc2nn(-c3ccc(Cl)cc3)nc2c1 | > 30 | –
10 | CC(C)S(=O)(=O)c1ccc2cn(-c3ccc(Cl)cc3)nc2c1 | – | Activity [6]: 54%
11 | CCS(=O)(=O)c1ccc2nn(-c3ccc(Cl)c(Cl)c3)nc2c1 | – | Activity [6]: 52%
12 | CC(C)C(=O)Nc1ccc2nn(-c3ccc(Cl)c(Cl)c3)nc2c1 | – | Activity [4]: 87%
13 | CCS(=O)(=O)c1ccc2cn(-c3ccc(Cl)cc3)nc2c1 | > 30 | –
14 | CCN(CC)c1ccc(-n2nc3cc(C)c(NC(=O)c4ccco4)cc3n2)cc1 | > 30 | –

Further lines, with some results ahead:

Row | EC50 [1] [µM] | Structure (SMILES) | also measured
15 | 3.07 | Cc1cc2nn(-c3ccc(Cl)cc3)nc2cc1NC(=O)c1cccnc1 | –
16 | 0.7 | CCN(CC)c1ccc(-n2nc3ccc(N)cc3n2)cc1 | –
17 | 0.76 | CC(C)C(=O)Nc1ccc2nn(-c3ccc(Cl)cc3)nc2c1 | solubility kinetic at 2 h [2]: 1 µM (≈ 0.315 µg/mL); half-life [3]: 4.85 h
18 | 1.8 | CCS(=O)(=O)c1ccc2oc(-c3ccc4ccccc4c3)nc2c1 [EZUTROMID] | –
19 | 1.73 | CC(C)C(=O)Nc1ccc2cn(-c3ccc(Cl)cc3)nc2c1 | solubility kinetic at 2 h [2]: 3 µM (≈ 0.941 µg/mL); Activity [5]: 138%; half-life [3]: 3.3 h
20 | 1.8 | CC(=O)Nc1ccc2nn(-c3ccc(Cl)cc3)nc2c1 | –
